Results taken from patent US4818753A, “Synthesis and method of use for 2, 4 diaminoquinazoline” (SRI International, priority 1987, dated 1989).
In brackets after ≈: the same amount, converted by molar mass. Entries after “also recorded” stand apart in the source; their conditions may differ. Like-named read-outs stand apart in the source and are kept apart here.

Key:
Assay type in all cases: cell-based
[1] = system: 18 yeastlike and 3 Filamentus fungii; assay: Agar dilution assay, whole panel; conditions: for MIC: 48 h
Description: (§1) For the agar dilution assay, the test panel consisted of 18 yeastlike and 3 Filamentus fungii. Four media were used. These were yeast nitrogen base dextrose (0.5% agar) (YNBDA); pH 5.5; YNBDA with pH adjusted to pH 7.5; and micrological agar (MA), pH 7.0; and Sabouraud dextrose agar, pH 5.7. The media was manufactured by Difco (Detroit, MI) and prepared according to the manufacturer's instructions.
(§2) The test compounds were solubilized in 10% aqueous DMSO; the control drug, Nystatin, was solublized in 10% aqueous DMF. The drugs were serially diluted twofold in sterile water to yield concentrations of 1.28 mg/ml to […]. One ml of diluted drug was added to 9 ml of cooled (50° C.) molten agar in plastic petri plates to yield final drug concentrations in the agar ranging from 128 to 0.063 ug/ml. Appropriate solvent and media control plates were prepared as well, and all plates stored in the dark at 4° C. overnight. The yeast cultures, maintained in yeast maltose (YM; Difco), were transferred to fresh YM medium and incubating overnight at 37° C. with shaking at 250 rpm. After incubation each culture was diluted in sterile saline to yield concentrations of 3×10^5 to 3×10^6 cfu/ml. Isolates of aspergillis and penicillium were made on potato dextrose agar slants, and spore suspensions were made following vigorous shaking with sterile glass beads. The spore preparation were used as inocula for these fungi.
(§3) Each prepared place was inoculated with the 21-member panel using a Denleigh multipoint inoculator (Sussex, England). The inoculator delivers approximately 1 ul to the agar surface, resulting in inoculation of from 3×10^2 to 3×10^3 cfu. The plates were incubated at 28° C. for 48 h, and the minimum inhibitory concentrations (MIC) of each drug were recorded as the lower concentration of the drug permitting no growth or growth of less than 3 cfu/spot.

Ca. parapsilosis MY1010 = assay: Agar dilution assay; conditions: Lodderomyces parapsilosis, MY1010, 48 h, read-out: Minimum inhibitory concentration
Description: as §1, §2, §3

[2] = system: Torulopsis glabrata MY1059; assay: Agar dilution assay; conditions: Nakaseomyces glabratus, MY1059, 48 h, read-out: Minimum inhibitory concentration
Description: as §1, §2, §3

Ca. albicans MY0992 = assay: Agar dilution assay; conditions: Candida albicans, MY0992, 48 h, read-out: Minimum inhibitory concentration
Description: as §1, §2, §3

A. flavus MF0383 = assay: Agar dilution assay; conditions: Aspergillus flavus, MF0383, 48 h, read-out: Minimum inhibitory concentration
Description: as §1, §2, §3

Ca. albicans MY1055 = assay: Agar dilution assay; conditions: Candida albicans, MY1055, 48 h, read-out: Minimum inhibitory concentration
Description: as §1, §2, §3

Ca. albicans MY1013 = assay: Agar dilution assay; conditions: Candida albicans, MY1013, 48 h, read-out: Minimum inhibitory concentration
Description: as §1, §2, §3

Sac. cerevisiae MY1027 = assay: Agar dilution assay; conditions: Saccharomyces cerevisiae, MY1027, 48 h, read-out: Minimum inhibitory concentration
Description: as §1, §2, §3

Ca. rugosa MY1022 = assay: Agar dilution assay; conditions: Diutina rugosa, MY1022, 48 h, read-out: Minimum inhibitory concentration
Description: as §1, §2, §3

Ca. krusei MY1020 = assay: Agar dilution assay; conditions: Pichia kudriavzevii, MY1020, 48 h, read-out: Minimum inhibitory concentration
Description: as §1, §2, §3

[3] = system: Cryptococcus neoformans MY1051; assay: Agar dilution assay; conditions: MY1051, 48 h
Description: as §1, §2, §3

[4] = system: Ca. tropicalis MY1012 (Nystatin resistant isolate); assay: Agar dilution assay; conditions: Candida tropicalis, 48 h
Description: as §1, §2, §3

Cr. neoformans MY1146 = assay: Agar dilution assay; conditions: Cryptococcus neoformans, MY1146, 48 h, read-out: Minimum inhibitory concentration
Description: as §1, §2, §3

[5] = system: Aspergillus fumigatus MY4839; assay: Agar dilution assay; conditions: MY4839, 48 h
Description: as §1, §2, §3

Ca. stellatoidea MY1017 = assay: Agar dilution assay; conditions: Candida albicans, MY1017, 48 h, read-out: Minimum inhibitory concentration
Description: as §1, §2, §3

[6] = system: Penicillium italicum MF2819; assay: Agar dilution assay; conditions: MF2819, 48 h
Description: as §1, §2, §3

[7] = MA pH 7.0, read-out: Minimum inhibitory concentration
[8] = SDA pH 5.7, read-out: Minimum inhibitory concentration
[9] = YNBDA pH 5.5, read-out: Minimum inhibitory concentration
[10] = YNBDA pH 7.5, read-out: Minimum inhibitory concentration

SMILES: CCCCCCCCc1ccc2nc(N)nc(N)c2c1C [2,4-Diamino-5-methyl-6-n-octylquinazoline]
- MIC ([1]; pH 5.7): > 128 µg/mL
- MIC ([1]; Candida tropicalis, pH 5.5): ≥ 128 µg/mL
- antifungal activity in words ([1]; Table 3 panel): inhibitory for a large variety of yeast and Filamentus fungii; also recorded: extremely toxic with regard to a wide variety of fungi
- MIC (Ca. parapsilosis MY1010; MA pH 7.0): 4 µg/mL (≈ 14 µM)
- MIC (Ca. parapsilosis MY1010; SDA pH 5.7): > 128 µg/mL
- MIC (Ca. parapsilosis MY1010; YNBDA pH 5.5): > 128 µg/mL
- MIC (Ca. parapsilosis MY1010; YNBDA pH 7.5): 8 µg/mL (≈ 27.9 µM)
- MIC ([2]; MA pH 7.0): 16 µg/mL (≈ 55.9 µM)
- MIC ([2]; SDA pH 5.7): > 128 µg/mL
- MIC ([2]; YNBDA pH 5.5): > 128 µg/mL
- MIC ([2]; YNBDA pH 7.5): 8 µg/mL (≈ 27.9 µM)
- MIC (Ca. albicans MY0992; MA pH 7.0): 16 µg/mL (≈ 55.9 µM)
- MIC (Ca. albicans MY0992; SDA pH 5.7): > 128 µg/mL
- MIC (Ca. albicans MY0992; YNBDA pH 5.5): > 128 µg/mL
- MIC (Ca. albicans MY0992; YNBDA pH 7.5): 16 µg/mL (≈ 55.9 µM)
- MIC (A. flavus MF0383; MA pH 7.0): 64 µg/mL (≈ 223 µM)
- MIC (A. flavus MF0383; SDA pH 5.7): > 128 µg/mL
- MIC (A. flavus MF0383; YNBDA pH 5.5): > 128 µg/mL
- MIC (A. flavus MF0383; YNBDA pH 7.5): 16 µg/mL (≈ 55.9 µM)
- MIC (Ca. albicans MY1055; MA pH 7.0): 32 µg/mL (≈ 112 µM)
- MIC (Ca. albicans MY1055; SDA pH 5.7): > 128 µg/mL
- MIC (Ca. albicans MY1055; YNBDA pH 5.5): > 128 µg/mL
- MIC (Ca. albicans MY1055; YNBDA pH 7.5): 32 µg/mL (≈ 112 µM)
- MIC (Ca. albicans MY1013; MA pH 7.0): 16 µg/mL (≈ 55.9 µM)
- MIC (Ca. albicans MY1013; SDA pH 5.7): 128 µg/mL (≈ 447 µM)
- MIC (Ca. albicans MY1013; YNBDA pH 5.5): > 128 µg/mL
- MIC (Ca. albicans MY1013; YNBDA pH 7.5): 16 µg/mL (≈ 55.9 µM)
- MIC (Sac. cerevisiae MY1027; MA pH 7.0): 4 µg/mL (≈ 14 µM)
- MIC (Sac. cerevisiae MY1027; SDA pH 5.7): 128 µg/mL (≈ 447 µM)
- MIC (Sac. cerevisiae MY1027; YNBDA pH 5.5): > 128 µg/mL
- MIC (Sac. cerevisiae MY1027; YNBDA pH 7.5): 4 µg/mL (≈ 14 µM)
- MIC (Ca. rugosa MY1022; pH 5.5, YNBDA pH 5.5): > 128 µg/mL
- MIC (Ca. rugosa MY1022; pH 7, MA pH 7.0): 64 µg/mL (≈ 223 µM)
- MIC (Ca. rugosa MY1022; pH 7.5, YNBDA pH 7.5): 32 µg/mL (≈ 112 µM)
- MIC (Ca. krusei MY1020; MA pH 7.0): 8 µg/mL (≈ 27.9 µM)
- MIC (Ca. krusei MY1020; SDA pH 5.7): > 128 µg/mL
- MIC (Ca. krusei MY1020; YNBDA pH 5.5): > 128 µg/mL
- MIC (Ca. krusei MY1020; YNBDA pH 7.5): 8 µg/mL (≈ 27.9 µM)
- MIC [3, 7]: 4 µg/mL (≈ 14 µM)
- MIC [3, 8]: 16 µg/mL (≈ 55.9 µM)
- MIC [3, 9]: 128 µg/mL (≈ 447 µM)
- MIC [3, 10]: 8 µg/mL (≈ 27.9 µM)
- MIC ([4]; pH 5.5, read-out: Minimum inhibitory concentration): 4 µg/mL (≈ 14 µM)
- MIC ([4]; pH 5.7, read-out: Minimum inhibitory concentration): 2 µg/mL (≈ 6.98 µM)
- MIC ([4]; pH 7, read-out: Minimum inhibitory concentration): 2 µg/mL (≈ 6.98 µM)
- MIC ([4]; pH 7.5, read-out: Minimum inhibitory concentration): 4 µg/mL (≈ 14 µM)
- MIC (Cr. neoformans MY1146; MA pH 7.0): 4 µg/mL (≈ 14 µM)
- MIC (Cr. neoformans MY1146; SDA pH 5.7): 16 µg/mL (≈ 55.9 µM)
- MIC (Cr. neoformans MY1146; YNBDA pH 5.5): 128 µg/mL (≈ 447 µM)
- MIC (Cr. neoformans MY1146; YNBDA pH 7.5): 8 µg/mL (≈ 27.9 µM)
- MIC [5, 7]: 64 µg/mL (≈ 223 µM)
- MIC [5, 8]: > 128 µg/mL
- MIC [5, 9]: > 128 µg/mL
- MIC [5, 10]: 32 µg/mL (≈ 112 µM)
- MIC (Ca. stellatoidea MY1017; MA pH 7.0): 16 µg/mL (≈ 55.9 µM)
- MIC (Ca. stellatoidea MY1017; SDA pH 5.7): 128 µg/mL (≈ 447 µM)
- MIC (Ca. stellatoidea MY1017; YNBDA pH 5.5): > 128 µg/mL
- MIC (Ca. stellatoidea MY1017; YNBDA pH 7.5): 16 µg/mL (≈ 55.9 µM)
- MIC [6, 7]: 4 µg/mL (≈ 14 µM)
- MIC [6, 8]: 64 µg/mL (≈ 223 µM)
- MIC [6, 9]: 128 µg/mL (≈ 447 µM)
- MIC [6, 10]: 8 µg/mL (≈ 27.9 µM)
